Data published in ChEMBL document CHEMBL3885861, “Open TG-GATES”.

Organism: Rattus norvegicus
Test: Open TG-GATES - Regimen: Daily Repeat
Format: toxicity, organism-based, Sprague-Dawley
Set-up: regimen Daily Repeat, gender Male, age 6 weeks
Conditions: in vivo, po, route gavage; for Bas / Eos / Fbg / Lym / MCH / MCHC / MCV / Mono / Neu / PT / Plat / RBC / Ret / WBC: tissue Blood; for KIDNEY_L / KIDNEY_R / KIDNEY_TOTAL: tissue Kidney; for ALP / ALT / AST / BUN / CRE / DBIL / IP / K / LDH / Na / RALB / TBIL / TC / TG / TP / gamma-GTP / GLC: tissue Plasma
[1] = 0 mg/kg, 72 h, dose level Control, time 3 day
[2] = 0 mg/kg, […], dose level Control, time 7 day
[3] = 0 mg/kg, […], dose level Control, time 14 day
[4] = 0 mg/kg, […], dose level Control, time 28 day
[5] = 3 mg/kg, 72 h, dose level Low, time 3 day
[6] = 3 mg/kg, […], dose level Low, time 7 day
[7] = 3 mg/kg, […], dose level Low, time 14 day
[8] = 3 mg/kg, […], dose level Low, time 28 day

SMILES: Cc1cnc(NC(=O)C2=C(O)c3ccccc3S(=O)(=O)N2C)s1 [MELOXICAM]
- TERMINAL_BW [1]: 245.1 g
- Bas [1]: 0.8%
- Eos [1]: 1.2%
- Fbg [1]: 223.6 mg/dL
- Lym [1]: 78.4%
- MCH [1]: 21.4 pg
- MCHC [1]: 34.2%
- MCV [1]: 62.4 fL
- Mono [1]: 2.8%
- Neu [1]: 17%
- PT [1]: 11.9 s
- Plat [1]: 120 x10_4/uL
- RBC [1]: 645.4 x10_4/ul
- Ret [1]: 5.5%
- KIDNEY_L [1]: 1 g
- KIDNEY_R [1]: 1 g
- KIDNEY_TOTAL [1]: 2 g
- ALP [1]: 947 IU/L
- ALT [1]: 42.2 IU/L
- AST [1]: 70.4 IU/L
- BUN [1]: 18 mg/dL
- CRE [1]: 0.4 mg/dL
- DBIL [1]: 0.1 mg/dL
- IP [1]: 7.7 mg/dL
- K [1]: 4.1 meq/L
- LDH [1]: 199.2 IU/L
- Na [1]: 141 meq/L
- RALB [1]: 3.5 g/dL
- TBIL [1]: 0.2 mg/dL
- TC [1]: 70.8 mg/dL
- TG [1]: 111.6 mg/dL
- TP [1]: 5.6 g/dL
- gamma-GTP [1]: 1 IU/L
- TERMINAL_BW [2]: 281.9 g
- TERMINAL_BW [3]: 300.3 g
- TERMINAL_BW [4]: 396.9 g
- Bas [2]: 0.8%
- Eos [2]: 1%
- Fbg [2]: 216.6 mg/dL
- Lym [2]: 78.4%
- MCH [2]: 21.4 pg
- MCHC [2]: 34.9%
- MCV [2]: 61.4 fL
- Mono [2]: 2.4%
- Neu [2]: 16.6%
- PT [2]: 11.9 s
- Plat [2]: 139.5 x10_4/uL
- RBC [2]: 655.6 x10_4/ul
- Ret [2]: 5.1%
- Bas [3]: 1%
- Eos [3]: 0.8%
- Fbg [3]: 226.8 mg/dL
- Lym [3]: 78.4%
- MCH [3]: 20.1 pg
- MCHC [3]: 34%
- MCV [3]: 59.1 fL
- Mono [3]: 2.8%
- Neu [3]: 16.8%
- PT [3]: 11.6 s
- Plat [3]: 111.1 x10_4/uL
- RBC [3]: 734.2 x10_4/ul
- Ret [3]: 3.2%
- Bas [4]: 1%
- Eos [4]: 1%
- Fbg [4]: 207.2 mg/dL
- Lym [4]: 87%
- MCH [4]: 19.3 pg
- MCHC [4]: 34.4%
- MCV [4]: 56.1 fL
- Mono [4]: 1.5%
- Neu [4]: 9%
- PT [4]: 11.6 s
- RBC [4]: 768.2 x10_4/ul
- Ret [4]: 2.4%
- WBC [4]: 144.5 x10_2/uL
- KIDNEY_L [2]: 1.2 g
- KIDNEY_R [2]: 1.1 g
- KIDNEY_TOTAL [2]: 2.3 g
- KIDNEY_L [3]: 1.2 g
- KIDNEY_R [3]: 1.2 g
- KIDNEY_TOTAL [3]: 2.4 g
- KIDNEY_L [4]: 1.4 g
- KIDNEY_R [4]: 1.3 g
- KIDNEY_TOTAL [4]: 2.7 g
- ALP [2]: 892.2 IU/L
- ALT [2]: 33.8 IU/L
- AST [2]: 68.2 IU/L
- BUN [2]: 15.8 mg/dL
- CRE [2]: 0.4 mg/dL
- DBIL [2]: 0.082 mg/dL
- GLC [2]: 214.8 mg/dL
- IP [2]: 7.3 mg/dL
- K [2]: 3.8 meq/L
- LDH [2]: 190.6 IU/L
- Na [2]: 142 meq/L
- RALB [2]: 3.3 g/dL
- TBIL [2]: 0.1 mg/dL
- TC [2]: 67.2 mg/dL
- TG [2]: 110.2 mg/dL
- TP [2]: 5.7 g/dL
- gamma-GTP [2]: 1.2 IU/L
- ALP [3]: 880.6 IU/L
- ALT [3]: 36.6 IU/L
- AST [3]: 69.6 IU/L
- BUN [3]: 16.4 mg/dL
- CRE [3]: 0.4 mg/dL
- DBIL [3]: 0.094 mg/dL
- IP [3]: 6.9 mg/dL
- K [3]: 4 meq/L
- LDH [3]: 178.6 IU/L
- Na [3]: 142 meq/L
- RALB [3]: 3.6 g/dL
- TBIL [3]: 0.2 mg/dL
- TC [3]: 69 mg/dL
- TG [3]: 113.2 mg/dL
- TP [3]: 6.1 g/dL
- gamma-GTP [3]: 1 IU/L
- ALP [4]: 523.8 IU/L
- ALT [4]: 32 IU/L
- AST [4]: 65.8 IU/L
- BUN [4]: 18.2 mg/dL
- CRE [4]: 0.5 mg/dL
- DBIL [4]: 0.1 mg/dL
- GLC [4]: 239.5 mg/dL
- IP [4]: 6.9 mg/dL
- K [4]: 4.1 meq/L
- LDH [4]: 187.8 IU/L
- Na [4]: 140.8 meq/L
- RALB [4]: 3.5 g/dL
- TBIL [4]: 0.2 mg/dL
- TC [4]: 69 mg/dL
- TG [4]: 141.2 mg/dL
- TP [4]: 5.9 g/dL
- gamma-GTP [4]: 0.5 IU/L
- TERMINAL_BW [5]: 246.9 g
- Bas [5]: 0.8%
- Eos [5]: 0.8%
- Fbg [5]: 225.2 mg/dL
- Lym [5]: 83%
- MCH [5]: 21.6 pg
- MCHC [5]: 34.6%
- MCV [5]: 62.5 fL
- Mono [5]: 2.2%
- Neu [5]: 13%
- PT [5]: 11.8 s
- Plat [5]: 121.1 x10_4/uL
- RBC [5]: 639.2 x10_4/ul
- Ret [5]: 5.7%
- KIDNEY_L [5]: 1.1 g
- KIDNEY_R [5]: 1.1 g
- KIDNEY_TOTAL [5]: 2.2 g
- ALP [5]: 950.2 IU/L
- ALT [5]: 35.6 IU/L
- AST [5]: 62.4 IU/L
- BUN [5]: 15.2 mg/dL
- CRE [5]: 0.4 mg/dL
- DBIL [5]: 0.1 mg/dL
- IP [5]: 7.6 mg/dL
- K [5]: 4.1 meq/L
- LDH [5]: 195.6 IU/L
- Na [5]: 141 meq/L
- RALB [5]: 3.5 g/dL
- TBIL [5]: 0.2 mg/dL
- TC [5]: 69.8 mg/dL
- TG [5]: 140.8 mg/dL
- TP [5]: 5.6 g/dL
- gamma-GTP [5]: 0.8 IU/L
- TERMINAL_BW [6]: 277.7 g
- TERMINAL_BW [7]: 332.6 g
- TERMINAL_BW [8]: 420.4 g
- Bas [6]: 1%
- Eos [6]: 1%
- Fbg [6]: 226.4 mg/dL
- Lym [6]: 81.6%
- MCH [6]: 21.9 pg
- MCHC [6]: 34.7%
- MCV [6]: 63.3 fL
- Mono [6]: 2.4%
- Neu [6]: 14.6%
- PT [6]: 11.9 s
- Plat [6]: 124.9 x10_4/uL
- RBC [6]: 637.8 x10_4/ul
- Ret [6]: 5.5%
- WBC [6]: 129.6 x10_2/uL
- Bas [7]: 1%
- Eos [7]: 1%
- Fbg [7]: 222.4 mg/dL
- Lym [7]: 80%
- MCH [7]: 20.4 pg
- MCHC [7]: 33.6%
- MCV [7]: 60.7 fL
- Mono [7]: 2.6%
- Neu [7]: 15.2%
- PT [7]: 11.6 s
- Plat [7]: 118.9 x10_4/uL
- RBC [7]: 689.2 x10_4/ul
- Ret [7]: 4.1%
- WBC [7]: 124.4 x10_2/uL
- Bas [8]: 1%
- Eos [8]: 1%
- Fbg [8]: 213.8 mg/dL
- Lym [8]: 81.2%
- MCH [8]: 18.9 pg
- MCHC [8]: 34.2%
- MCV [8]: 55.2 fL
- Mono [8]: 2.2%
- Neu [8]: 13.4%
- PT [8]: 11.7 s
- Plat [8]: 115.1 x10_4/uL
- RBC [8]: 790 x10_4/ul
- Ret [8]: 2.5%
- WBC [8]: 131 x10_2/uL
- KIDNEY_L [6]: 1.3 g
- KIDNEY_R [6]: 1.2 g
- KIDNEY_TOTAL [6]: 2.5 g
- KIDNEY_L [7]: 1.4 g
- KIDNEY_R [7]: 1.3 g
- KIDNEY_TOTAL [7]: 2.7 g
- KIDNEY_L [8]: 1.5 g
- KIDNEY_R [8]: 1.5 g
- KIDNEY_TOTAL [8]: 3 g
- ALP [6]: 971.8 IU/L
- ALT [6]: 37 IU/L
- AST [6]: 68.4 IU/L
- BUN [6]: 15.2 mg/dL
- CRE [6]: 0.4 mg/dL
- DBIL [6]: 0.098 mg/dL
- IP [6]: 7.4 mg/dL
- K [6]: 4.1 meq/L
- LDH [6]: 186.8 IU/L
- Na [6]: 141.8 meq/L
- RALB [6]: 3.4 g/dL
- TBIL [6]: 0.2 mg/dL
- TC [6]: 72.6 mg/dL
- TG [6]: 128.8 mg/dL
- TP [6]: 5.7 g/dL
- gamma-GTP [6]: 1.2 IU/L
- ALP [7]: 820.8 IU/L
- AST [7]: 75.2 IU/L
- BUN [7]: 17 mg/dL
- CRE [7]: 0.5 mg/dL
- DBIL [7]: 0.1 mg/dL
- GLC [7]: 214.6 mg/dL
- IP [7]: 7.4 mg/dL
- K [7]: 4 meq/L
- LDH [7]: 223.6 IU/L
- Na [7]: 141.4 meq/L
- RALB [7]: 3.5 g/dL
- TBIL [7]: 0.2 mg/dL
- TC [7]: 72.6 mg/dL
- TG [7]: 141.8 mg/dL
- TP [7]: 5.9 g/dL
- gamma-GTP [7]: 1 IU/L
